The target in assay [1] is T1, Recombinant His-tagged HIV-1 integrase (Human immunodeficiency virus type 1 group M subtype B, UniProt P12497, C1427S/F1332K).
T1 construct: Recombinant His-tagged HIV-1 integrase; His; made in house; host or cells: E. coli BL21(DE3)
Briefly: Enzymatic integrase assay (oligonucleotide-based DNA strand transfer, ELISA). In kind it is biochemical. How it is done: Enzymatic Integrase Assay
The activity of HIV-integrase was determined using an oligonucleotide-based assay in which the DNA strand transfer by preformed complexes of integrase and processed DNA was measured by means of an enzyme-linked immunosorbent assay (ELISA) in microtiter plate format. Recombinant His-tagged HIV-1 integrase was produced in the E. coli strain BL21(DE3) from the plasmid pINSD.His.sol (available from NTH) after induction with isopropyl-β-D-thiogalactopyranoside (IPTG) according to described procedures (cfr. ref. Jenkins et al., “A soluble active mutant of HIV-1 integrase”, J. Biol. Chem. 271 ([…]), 7712-7718). HPLC-purified oligodeoxynucleotides were obtained from Proligo, and used for preparation of the viral DNA substrate and target DNA.
INb-1C is 5′-biotinylated, INT5 and INT6 are at the 3′-end labeled with FITC. INb-1C and IN-1NC correspond to the U5 end of the HIV-1 LTR. The DNA substrate for the integrase reactions was made by annealing INb-1C and IN-1NC. An equimolar mixture of INb-1C and IN-1NC was heated shortly at 95° C. in the presence of 100 mM NaCl and allowed to cool slowly to room temperature. In the same way, INT5 and INT6 were annealed to produce a target DNA molecule.
The integration strand transfer reactions were performed in the following way:
20 nM biotinylated DNA substrate INb-1C/IN-1NC was pre-incubated with 300 nM HIV-integrase at 37° C. for 5 min, to allow the cleavage reaction to occur. The candidate compounds and 50 nM target DNA INT5/INT6 were added to the reaction mix containing 20 mM Hepes pH 7.5, 25 mM NaCl, 5 mM MnCl2, 2 mM DTT, and 50 μg/ml BSA, and incubated for 2 h at 37° C. The reaction mix was transferred to streptavidin-coated plates (Exiqon), which were prewashed (three times) with 5×SSCT, and incubated for 1 h at room temperature to allow capture of the biotinylated viral DNA/target DNA complex. Plates were washed three times with 2×SSCT buffer, and anti-FITC POD-coupled antibody (Roche) was added and incubated for 1 h at room temperature to detect integrated FITC-labeled target DNA. After a final washing step with PBST (5 times), BM chemiluminescent POD-substrate (Roche) was added, and luminescence was read out.
The table below list the pIC50 values for those compounds tested in the enzymatic integrase assay. The pIC50 is expressed in Molar units and is the value according to the following formula: pIC50=−log IC50
wherein the IC50 value is the drug concentration at which 50% of the enzyme or viral activity is inhibited.
In general terms: In an ELISA, binding on a coated surface is turned into a signal by an enzyme label.

For assay [2], the system named is MT4 cells infected with HIV. In words: Analysis of HIV integration using real-time PCR. The assay is classed as cell-based. Conditions: for 2LTR-circles (DNA copies) / Integration Alu-PCR (integrated DNA copies): DNA analyzed 16 h after infection, relative to control; for Conclusion (step of replication cycle inhibited): from Alu-PCR and 2LTR-circles. How it is done:
Analysis of HIV Integration Using Real-Time PCR
Next to the detection of integrated DNA (proviral DNA), the production of 2LTR-circles formed by circularisation of unintegrated DNA was monitored. Specific inhibition of the integration of viral DNA into the genome was typically associated with accumulation of 2LTR-circles in the nucleus. MT4 cells were infected with HIV at high MOI by centrifugation for 60 min at 1200 g. After infection cells were incubated in the presence of compound in 24-well plates (10^6 c/well) for 16 h, and DNA was extracted using the QiaAmp DNA mini kit (Qiagen).
After normalization, 2LTR-circles and integrated DNA were quantified by real-time PCR using the appropriate primers and probe (cfr. reference Butler et al.). Reactions were analysed using the ABI Prism 5700 sequence detection system (Applied Biosystems).
DNA was analyzed for integration (Alu-PCR) and 2LTR-circles, 16 h after infection. DNA was also analyzed for viral cDNA synthesis, 4 h after infection.
(Real-time PCR tracks product formation cycle by cycle.)

The structures appear in SMILES notation. pIC50: −log10 of the molar value. Some results are limits rather than exact numbers.

As a reminder, the pIC50 is the IC50 on a negative log10 scale, so that one unit is a factor of ten. On to `O=C1c2c(c(O)c3nccnc3c2O)C(=O)N1Cc1ccc(F)cc1` [Compound 2, 7-(4-Fluoro-benzyl)-5,9-dihydroxy-pyrrolo[3,4-g]quinoxaline-6,8-dione], for which, in assay [1], the negative logarithm of the IC50 (pIC50) was 6.38. Besides, in assay [2], the “2LTR-circles (DNA copies)” value is reported as “+++ (“+++” symbol indicates an increase in the amount of DNA copies > 5 in comparison with the control level)”, the “Integration Alu-PCR (integrated DNA copies)” value (“Integration Alu-PCR” for short) is on record as “−” and the “Conclusion (step of replication cycle inhibited)” value is listed as “Integrase”.
`CC(C)Oc1ccc(Cc2ccccc2)cc1C(=O)CC(=O)C(=O)O` [Reference compound, reference compound]: in assay [2], the “2LTR-circles (DNA copies)” value is “+++ (“+++” symbol indicates an increase in the amount of DNA copies > 5 in comparison with the control level)”, the “Integration Alu-PCR” value is reported as “−” and the “Conclusion (step of replication cycle inhibited)” value is reported as “Integrase”.
On to `O=C1c2c(c(O)c3nccnc3c2O)C(=O)N1Cc1ccc2c(c1)OCO2` [Compound 1, 7-Benzo[1,3]dioxol-5-ylmethyl-5,9-dihydroxy-pyrrolo[3,4-g]quinoxaline-6,8-dione], for which, in assay [1], the negative-log IC50 (pIC50) is 6.21. Besides, in assay [2], the “2LTR-circles (DNA copies)” value is given as “+++ (“+++” symbol indicates an increase in the amount of DNA copies > 5 in comparison with the control level)”, the “Integration Alu-PCR” value is recorded as “−” and the “Conclusion (step of replication cycle inhibited)” value is on record as “Integrase”.
In the case of `O=C1c2c(c(O)c3nccnc3c2O)C(=O)N1Cc1cccc(CN2C(=O)c3c(c(O)c4nccnc4c3O)C2=O)c1` [Compound 18, 7-[3-(5,9-Dihydroxy-6,8-dioxo-6,8-dihydro-pyrrolo[3,4-g]quinoxalin-7-ylmethyl)-benzyl]-5,9-dihydroxy-pyrrolo[3,4-g]quinoxaline-6,8-dione], the pIC50 in assay [1] is 5.12.
Same read-out and setting: next, `O=C1c2c(c(OCc3ccccc3)c3nccnc3c2O)C(=O)N1Cc1ccc2c(c1)OCO2` [Compound 31, 7-Benzo[1,3]dioxol-5-ylmethyl-5-benzyloxy-9-hydroxy-pyrrolo[3,4-g]quinoxaline-6,8-dione]: below 4.00; `O=C1c2c(c(O)c3[nH]cnc3c2O)C(=O)N1Cc1ccc2c(c1)OCO2` [Compound 39, 6-Benzo[1,3]dioxol-5-ylmethyl-4,8-dihydroxy-1H-1,3,6-triaza-s-indacene-5,7-dione]: 5.69.
Regarding `CC(c1ccccc1)N1C(=O)c2c(c(O)c3ccccc3c2O)C1=O` (stereo not drawn) [Compound 42, 4,9-Dihydroxy-2-(1-phenyl-ethyl)-benzo[f]isoindole-1,3-dione], the negative-log IC50 (pIC50) in assay [1] was below 4.00.
